Laboratory results published in ChEMBL document CHEMBL1142200, “Efficacy of delayed treatment with ST-246 given orally against systemic orthopoxvirus infections in mice” (Antimicrob Agents Chemother, 2007).
Calls of active or inactive are those of the source.

Key:
Mus musculus [1] = assay: Effect on mortality of BALB/c mouse inoculated with Cowpox virus at 30 mg/kg after 48 hrs of viral infection, po once daily for 14 days relative to control; assay type: functional
Mus musculus [2] = assay: Effect on mortality of BALB/c mouse inoculated with Cowpox virus at 10 mg/kg after 48 hrs of viral infection, po once daily for 14 days relative to control; assay type: functional
Mus musculus [3] = assay: Effect on mortality of BALB/c mouse inoculated with Cowpox virus at 100 mg/kg after 48 hrs of viral infection, po once daily for 14 days relative to control; assay type: functional
Mus musculus [4] = assay: Effect on mortality of BALB/c mouse inoculated with Cowpox virus at 100 mg/kg after 72 hrs of viral infection, po once daily for 14 days relative to control; assay type: functional
Mus musculus [5] = assay: Effect on mortality of BALB/c mouse inoculated with Cowpox virus BR at 100 mg/kg after 4 hrs of viral infection, po once daily for 7 days relative to control; assay type: functional
Mus musculus [6] = assay: Effect on mortality of BALB/c mouse inoculated with Cowpox virus BR at 100 mg/kg after 24 hrs of viral infection, po once daily for 7 days relative to control; assay type: functional
Mus musculus [7] = assay: Effect on mortality of BALB/c mouse inoculated with Cowpox virus BR at 100 mg/kg after 4 hrs of viral infection, po once daily for 10 days relative to control; assay type: functional
Mus musculus [8] = assay: Effect on mortality of BALB/c mouse inoculated with Cowpox virus BR at 100 mg/kg after 4 hrs of viral infection, po once daily for 14 days relative to control; assay type: functional
Mus musculus [9] = assay: Effect on mortality of BALB/c mouse inoculated with Cowpox virus BR at 100 mg/kg after 24 hrs of viral infection, po once daily for 14 days relative to control; assay type: functional
Mus musculus [10] = assay: Effect on mortality of BALB/c mouse inoculated with Vaccinia virus WR at 100 mg/kg after 24 hrs of viral infection, po once daily for 7 days relative to control; assay type: functional
Mus musculus [11] = assay: Effect on mortality of BALB/c mouse inoculated with Vaccinia virus WR at 100 mg/kg after 4 hrs of viral infection, po once daily for 14 days relative to control; assay type: functional
Cowpox virus [12] = assay: Reduction of Cowpox virus BR replication in BALB/c mouse lung at 50 mg/kg after 24 hrs of viral infection, po for 9 days; assay type: functional, organism-based; parameters: dose 50 mg/kg
Mus musculus [13] = assay: Effect on mortality of A/NCr mouse inoculated with ectromelia virus at 100 mg/kg after 0 hrs of viral infection, po once daily for 10 days relative control; assay type: functional
Mus musculus [14] = assay: Effect on mortality of A/NCr mouse inoculated with ectromelia virus at 100 mg/kg after 48 hrs of viral infection, po once daily for 10 days relative control; assay type: functional
Mus musculus [15] = assay: Effect on mortality of A/NCr mouse inoculated with ectromelia virus at 100 mg/kg after 24 hrs of viral infection, po once daily for 10 days relative control; assay type: functional
Mus musculus [16] = assay: Effect on mortality of BALB/c mouse inoculated with Cowpox virus BR at 50 mg/kg after 24 hrs of viral infection, po for 9 days; assay type: functional, organism-based; parameters: dose 50 mg/kg
[17] = Cytotoxicity against HFF cells; assay type: cell-based; settings: human
Mus musculus [18] = assay: Effect on mortality of BALB/c mouse inoculated with Cowpox virus at 10 mg/kg after 24 hrs of viral infection, po once daily for 14 days relative to control; assay type: functional
Ectromelia virus [19] = assay: Reduction of Ectromelia virus replication in BALB/c mouse liver at 100 mg/kg, po once daily after 6 days; assay type: functional, organism-based; parameters: dose 100 mg/kg
Ectromelia virus [20] = assay: Reduction of Ectromelia virus replication in BALB/c mouse spleen at 100 mg/kg, po once daily after 6 days; assay type: functional, organism-based; parameters: dose 100 mg/kg
Ectromelia virus [21] = assay: Reduction of Ectromelia virus replication in BALB/c mouse spleen at 100 mg/kg, po once daily after 8 days; assay type: functional, organism-based; parameters: dose 100 mg/kg
Ectromelia virus [22] = assay: Reduction of Ectromelia virus replication in BALB/c mouse esophagus at 100 mg/kg, po once daily after 6 days; assay type: functional, organism-based; parameters: dose 100 mg/kg
Ectromelia virus [23] = assay: Reduction of Ectromelia virus replication in BALB/c mouse trachea at 100 mg/kg, po once daily after 4 days; assay type: functional, organism-based; parameters: dose 100 mg/kg
Cowpox virus [24] = assay: Reduction of Cowpox virus BR replication in BALB/c mouse kidney at 50 mg/kg after 24 hrs of viral infection, po for 9 days; assay type: functional, organism-based; parameters: dose 50 mg/kg
Vaccinia virus [25] = assay: Reduction of Vaccinia virus WR replication in BALB/c mouse liver at 50 mg/kg after 24 hrs of viral infection, po for 9 days; assay type: functional, organism-based; parameters: dose 50 mg/kg; settings: Orthopoxvirus vaccinia
Vaccinia virus [26] = assay: Reduction of Vaccinia virus WR replication in BALB/c mouse kidney at 50 mg/kg after 24 hrs of viral infection, po for 9 days; assay type: functional, organism-based; parameters: dose 50 mg/kg; settings: Orthopoxvirus vaccinia
Mus musculus [27] = assay: Effect on mortality of BALB/c mouse inoculated with Cowpox virus at 30 mg/kg after 72 hrs of viral infection, po once daily for 14 days relative to control; assay type: functional
Mus musculus [28] = assay: Effect on mortality of BALB/c mouse inoculated with Cowpox virus at 10 mg/kg after 72 hrs of viral infection, po once daily for 14 days relative to control; assay type: functional
Mus musculus [29] = assay: Effect on mortality of A/NCr mouse inoculated with 410 PFU ectromelia virus at 100 mg/kg after 24 hrs of viral infection, po twice daily for 14 days; assay type: functional
Mus musculus [30] = assay: Effect on mortality of A/NCr mouse inoculated with 4100 PFU ectromelia virus at 100 mg/kg after 24 hrs of viral infection, po twice daily for 14 days; assay type: functional
Ectromelia virus [31] = assay: Reduction of Ectromelia virus replication in BALB/c mouse trachea at 100 mg/kg, po once daily after 14 days; assay type: functional, organism-based; parameters: dose 100 mg/kg

O=C(NN1C(=O)[C@@H]2[C@@H]3C=C[C@@H]([C@H]4C[C@@H]34)[C@@H]2C1=O)c1ccc(C(F)(F)F)cc1 [TECOVIRIMAT]
active: Activity (Cowpox virus [12]) | Activity (Mus musculus [16]) | Activity (Ectromelia virus [19]) | Activity (Ectromelia virus [20]) | Activity (Ectromelia virus [21]) | Activity (Ectromelia virus [22]) | Activity (Ectromelia virus [23]) | Activity (Cowpox virus [24]) | Activity (Vaccinia virus [25]) | Activity (Vaccinia virus [26]) | Activity (Ectromelia virus [31])
7%: Activity (Mus musculus [3]) | Activity (Mus musculus [5]) | Activity (Mus musculus [8]) | Activity (Mus musculus [10])
27%: Activity (Mus musculus [7])
> 100 µM: CC50 [17]
40%: Activity (Mus musculus [4]) | Activity (Mus musculus [6]) | Activity (Mus musculus [27])
73%: Activity (Mus musculus [18])
0%: Activity (Mus musculus [9]) | Activity (Mus musculus [13]) | Activity (Mus musculus [14]) | Activity (Mus musculus [15]) | Activity (Mus musculus [29]) | Activity (Mus musculus [30])
13%: Activity (Mus musculus [2])
20%: Activity (Mus musculus [1]) | Activity (Mus musculus [11])
47%: Activity (Mus musculus [28])
